Source: patent US20250340560A1, “SUBSTITUTED PYRAZOLO[1,5-a]PYRIMIDINES AS BRUTON'S TYROSINE KINASE MODULATORS” (BEIGENE SWITZERLAND GMBH, priority 2013, published 2025)

Each molecule was assayed against Recombinant Btk (Homo sapiens (Human), UniProt Q06187) (assay: BTK kinase assay (TR-FRET)). Conditions: read-out: IC50 (nM) Btk; 1 hour pre-incubation, ATP at Km.
Recombinant Btk, sequence (Q06187 whole entry): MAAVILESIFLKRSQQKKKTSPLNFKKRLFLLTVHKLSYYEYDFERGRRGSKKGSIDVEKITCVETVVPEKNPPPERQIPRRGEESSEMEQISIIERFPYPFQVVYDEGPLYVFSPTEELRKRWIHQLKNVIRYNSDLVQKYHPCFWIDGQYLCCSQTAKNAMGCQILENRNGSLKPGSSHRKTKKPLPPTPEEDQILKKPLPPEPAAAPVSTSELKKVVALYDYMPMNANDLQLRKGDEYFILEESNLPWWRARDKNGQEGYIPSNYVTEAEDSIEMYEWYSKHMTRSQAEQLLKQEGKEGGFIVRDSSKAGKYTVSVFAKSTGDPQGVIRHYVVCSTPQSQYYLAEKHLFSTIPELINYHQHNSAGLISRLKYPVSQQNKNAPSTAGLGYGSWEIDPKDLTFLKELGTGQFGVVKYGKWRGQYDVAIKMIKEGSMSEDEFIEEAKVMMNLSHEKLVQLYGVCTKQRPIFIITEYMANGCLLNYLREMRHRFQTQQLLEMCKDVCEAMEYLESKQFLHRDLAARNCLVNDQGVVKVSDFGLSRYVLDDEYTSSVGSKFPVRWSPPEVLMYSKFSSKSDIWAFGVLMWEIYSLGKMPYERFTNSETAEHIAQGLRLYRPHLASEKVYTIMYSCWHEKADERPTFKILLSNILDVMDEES
`NCC1CCNc2c(C(N)=O)c(-c3ccc(OCC4CC4)cc3)nn21` (centres unmarked) [Compound 112, 7-(aminomethyl)-2-(4-(cyclopropylmethoxy)phenyl)-4,5,6,7-tetrahydropyrazolo[1,5-a]pyrimidine-3-carboxamide] showed an IC50 greater than 10000 nM.
Molecule `NC(=O)c1c(-c2ccc(Oc3ccccc3)cc2)nn2c1[nH]c1cccc(N)c12` [Compound 131, 8-amino-2-(4-phenoxyphenyl)-4H-benzo[4,5]imidazo[1,2-b]pyrazole-3-carboxamide] has an IC50 of 170 nM.
`NC(=O)c1c(-c2ccc(Oc3ccccc3)cc2)nn2c(-c3cccc(N)c3)c[nH]c12` [Compound 49, 3-(3-Aminophenyl)-6-(4-phenoxyphenyl)-1H-pyrazolo[1,5-a]imidazole-7-carboxamide] gave an IC50 of 29 nM.
In the case of `N#Cc1c(-c2ccc(Oc3ccccc3)cc2)nn2c(-c3cccc(N)c3)ccnc12` [Compound 1, 7-(3-Aminophenyl)-2-(4-phenoxyphenyl)pyrazolo[1,5-a]pyrimidine-3-carbonitrile], the IC50 is reported as greater than 10000 nM.
`C=CC(=O)Nc1ccccc1C1CCNc2c(C(N)=O)c(-c3ccc(F)c(C)c3)nn21` (centres unmarked) [Compound 157, 7-(2-Acrylamidophenyl)-2-(4-fluoro-3-methylphenyl)-4,5,6,7-tetrahydropyrazolo[1,5-a]pyrimidine-3-carboxamide] gave an IC50 of 0.38 nM.
Molecule `NC(=O)c1c(-c2ccc(Oc3ccccc3)cc2)nn2c1[nH]c1cc([N+](=O)[O-])ccc12` [Compound 128, 6-nitro-2-(4-phenoxyphenyl)-4H-benzo[4,5]imidazo[1,2-b]pyrazole-3-carboxamide] has an IC50 of 930 nM.
`CNCC1CCNc2c(C(N)=O)c(-c3ccc(Oc4ccccc4)cc3)nn21` (centres unmarked) [Compound 34, 7-((Methylamino)methyl)-2-(4-phenoxyphenyl)-4,5,6,7-tetrahydro pyrazolo[1,5-a]pyrimidine-3-carboxamide] gave an IC50 of 1900 nM.
For `C=CC(=O)Nc1ccccc1C1CCNc2c(C(N)=O)c(-c3cc(Cl)c(OC)c(Cl)c3)nn21` (centres unmarked) [Compound 169, 7-(2-Acrylamidophenyl)-2-(3,5-dichloro-4-methoxyphenyl)-4,5,6,7-tetrahydropyrazolo[1,5-a]pyrimidine-3-carboxamide], the IC50 was 0.15 nM.
Work on `C=CC(=O)N(C)CC1CCNc2c(C(N)=O)c(-c3ccc(Oc4ccccc4)cc3)nn21` (centres unmarked) [Compound 35] yielded an IC50 of 1.1 nM.
With `NC(=O)c1c(-c2ccc(Oc3ccccc3)cc2)nn2c1NCC(c1cccc(N)c1)C2` (centres unmarked) [Compound 90, 6-(3-Aminophenyl)-2-(4-phenoxyphenyl)-4,5,6,7-tetrahydropyrazolo[1,5-a]pyrimidine-3-carboxamide] the IC50 was 1900 nM.
`NC(=O)c1c(-c2ccc(Oc3ccccc3)cc2)nn2c1NCCC2C1CCN(C(=O)/C=C/CN2CCCCC2)CC1` (centres unmarked) [Compound 170, (E)-2-(4-Phenoxyphenyl)-7-(1-(4-(piperidin-1-yl)but-2-enoyl)piperidin-4-yl)-4,5,6,7-tetrahydropyrazolo[1,5-a]pyrimidine-3-carboxamide] showed an IC50 of 3.8 nM.
`C=CC(=O)N1CCC(C2CCNc3c(C(N)=O)c(-c4ccc(C)c(OC)c4)nn32)CC1` (centres unmarked) [Compound 174, 7-(1-Acryloylpiperidin-4-yl)-2-(3-methoxy-4-methylphenyl)-4,5,6,7-tetrahydropyrazolo[1,5-a]pyrimidine-3-carboxamide] gave an IC50 of 4.8 nM.
For `C=CC(=O)Nc1ccccc1C1CCNc2c(C(N)=O)c(-c3ccc(Cl)c(C(F)(F)F)c3)nn21` (centres unmarked) [Compound 163, 7-(2-Acrylamidophenyl)-2-(4-chloro-3-(trifluoromethyl)phenyl)-4,5,6,7-tetrahydropyrazolo[1,5-a]pyrimidine-3-carboxamide], the IC50 was 7.3 nM.
With `C=CC(=O)Nc1ccccc1C1CCNc2c(C(N)=O)c(-c3ccc(OC4CCOCC4)cc3)nn21` (centres unmarked) [Compound 24, 7-(2-Acrylamidophenyl)-2-(4-(tetrahydro-2H-pyran-4-yloxy)phenyl)-4,5,6,7-tetrahydropyrazolo[1,5-a]pyrimidine-3-carboxamide] the IC50 was 39 nM.
